Experimental findings from ChEMBL document CHEMBL1201862, “PubChem BioAssay data set” (2004) are described below.

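In this assay, cells in 96-well plates receive the compound at five concentrations for 48 hours. Endpoints are linearly interpolated between the surrounding concentrations. GI50 = concentration required for 50% inhibition of growth.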 Activity calls are given as the source filed them. Rule as the data show it: active = GI50 up to about 1.1 µM and inactive = higher.

Test in all cases: NCI anticancer screen, dose series, 48 h
In assay [1] the test system is A498.
In assay [2] the test system is ACHN.
Assay [3] relates to BT-549.
The test system of assay [4] is DU-145.
For assay [5], the system named is HCT-15.
The test system of assay [6] is HL-60.
Assay [7] deals with HOP-62.
For assay [8], the system named is Hs-578T.
Assay [9] relates to IGROV-1.
For assay [10], the system named is K562.
In assay [11] the test system is KM12.
Assay [12] relates to MCF7.
Assay [13] deals with MDA-MB-231.
Assay [14] relates to MDA-MB-435.
The subject of assay [15] is NCI-H23.
Assay [16] deals with OVCAR-3.
The subject of assay [17] is OVCAR-4.
The subject of assay [18] is OVCAR-8.
The subject of assay [19] is SK-MEL-2.
The subject of assay [20] is UO-31.

`CCC1CC(=O)N(SCC(N)C(=O)O)C1=O` (stereo not given): the GI50 in assay [1] was > 100 µM (inactive); in assay [2], > 100 µM (inactive); in assay [3] it was > 100 µM (inactive); in assay [4] it was > 100 µM (inactive); in [5] it was greater than 100 µM; in assay [6], > 100 µM (inactive). Besides, the GI50 in [7], in assay [8], in assay [9], in assay [10], in assay [11] and in [12] was > 100 µM (inactive) each time. The GI50 in assay [13], in assay [14], in [15], in assay [16], in assay [17] and in assay [18] was > 100 µM (inactive) each time. Moreover, the GI50 in assay [19] and in assay [20] was > 100 µM (inactive) throughout.
Regarding `COC(=O)[C@H](C)NC(=O)C1(CNC(=O)[C@H](C)NC(=O)OC(C)(C)C)Cc2ccccc2-c2ccccc2C1`, the GI50 is 35.7 µM (inactive) in [1]; 22.8 µM (inactive) in assay [2]; > 43.6 µM (inactive) in [3]; 14.9 µM (inactive) in [4]; 15.7 µM in [5]; 19.5 µM (inactive) in assay [6]. Further, the GI50 is 27 µM (inactive) in assay [7]; > 37.2 µM (inactive) in [8]; 16.3 µM (inactive) in [9]; 24.7 µM (inactive) in assay [10]; 16.1 µM (inactive) in assay [11]; 37.5 µM (inactive) in assay [12]. For the same compound, the GI50 in [13] is 17.9 µM (inactive); in assay [14] it was 20 µM (inactive); in assay [15], 18 µM (inactive); in [16], 17.5 µM (inactive); in assay [17] it was 21 µM (inactive); in assay [18] it was 6.78 µM (inactive). In addition, the GI50 was 40 µM (inactive) in [19] and 4.67 µM (inactive) in assay [20].
As for `Nn1c(Sc2nc3ccccc3c(=O)n2N)nc2ccccc2c1=O`, the GI50 in assay [1] was 16 µM (inactive); in assay [2], 8.95 µM (inactive); in [3], 1.77 µM (inactive); in [4], 20.2 µM (inactive); in assay [5], 3.37 µM; in assay [6], 2.51 µM (inactive). Also, the GI50 in [7] is 16.6 µM (inactive); in assay [8] it was 17.1 µM (inactive); in assay [9], 6.5 µM (inactive); in assay [10], 2.12 µM (inactive); in assay [11], 11.7 µM (inactive); in assay [12], 4.1 µM (inactive). Besides, the GI50 in assay [13] was 7.93 µM (inactive); in assay [14], 6.22 µM (inactive); in assay [15] it was 1.91 µM (inactive); in [16], 11.1 µM (inactive); in assay [17], 26.7 µM (inactive); in [18], 2.77 µM (inactive). Further, the GI50 is 3.24 µM (inactive) in assay [19] and 1.73 µM (inactive) in [20].
`O=c1cc(CNC2CCCC2)[nH]c(=O)[nH]1`: the GI50 was > 100 µM (inactive) in assay [1]; > 100 µM (inactive) in assay [2]; > 100 µM (inactive) in assay [3]; > 100 µM (inactive) in assay [4]; greater than 100 µM in assay [5]; > 100 µM (inactive) in assay [6]. For the same compound, the GI50 in assay [7], in [8], in assay [9], in [10], in assay [11] and in [12] was > 100 µM (inactive) each time. For the same compound, the GI50 in assay [13], in assay [14], in [15], in assay [16], in assay [17] and in assay [18] was > 100 µM (inactive) throughout. Also, the GI50 in assay [19] and in [20] was > 100 µM (inactive) each time.
With `Cc1ccc(C2(c3ccc(Cl)cc3)c3ccccc3C3=NCCN32)cc1` (stereo not given), the GI50 in assay [1] was 4.92 µM (inactive); in [2], 6.93 µM (inactive); in assay [3] it was 12.6 µM (inactive); in [4] it was 13.2 µM (inactive); in [5], 11.6 µM; in [6], 6.79 µM (inactive). Further, the GI50 was 9.68 µM (inactive) in [7]; 14.2 µM (inactive) in assay [8]; 2.15 µM (inactive) in assay [9]; 3.74 µM (inactive) in assay [10]; 10.7 µM (inactive) in assay [11]; 1.44 µM (inactive) in assay [12]. The GI50 in assay [13] was 5.7 µM (inactive); in [14] it was 2.86 µM (inactive); in [15] it was 14.3 µM (inactive); in [16], 10.3 µM (inactive); in [17] it was 1.83 µM (inactive); in [18], 14.5 µM (inactive). Further, the figures for the GI50 in assay [19] and in assay [20] were 12.2 µM (inactive) and 3.37 µM (inactive), respectively.
Regarding `CCOC(=O)c1nc2cc(N3CCOCC3)c(F)cc2[nH]c1=O`, the GI50 in [1] was > 100 µM (inactive); in assay [2] it was > 100 µM (inactive); in [3], > 100 µM (inactive); in assay [4], > 100 µM (inactive); in [5], greater than 100 µM; in [6], 19.8 µM (inactive). The GI50 in assay [7] is 57.5 µM (inactive); in assay [8], 33.4 µM (inactive); in [9], 39 µM (inactive); in assay [10] it was > 100 µM (inactive); in assay [11], > 100 µM (inactive); in assay [12], > 100 µM (inactive). For the same compound, the GI50 is > 100 µM (inactive) in assay [13]; > 100 µM (inactive) in assay [14]; > 100 µM (inactive) in [15]; > 100 µM (inactive) in [16]; > 100 µM (inactive) in assay [17]; 86.9 µM (inactive) in assay [18]. The GI50 in assay [19] is > 100 µM (inactive); in assay [20], 35.2 µM (inactive).
`Cc1ccc(CCCCCOc2ccc(C3=NCCO3)cc2)s1`: the GI50 in assay [1] is 1.81 µM (inactive); in [2], > 100 µM (inactive); in assay [3], > 100 µM (inactive); in assay [4], > 100 µM (inactive); in [5] it was greater than 100 µM; in [6], > 100 µM (inactive). For the same compound, the GI50 was > 100 µM (inactive) in assay [7]; > 100 µM (inactive) in [8]; > 100 µM (inactive) in assay [9]; 9.29 µM (inactive) in assay [10]; > 100 µM (inactive) in [11]; > 100 µM (inactive) in [12]. The GI50 in assay [13] was > 100 µM (inactive); in assay [14] it was 4.85 µM (inactive); in [15] it was > 100 µM (inactive); in assay [16] it was > 100 µM (inactive); in [17] it was > 100 µM (inactive); in assay [18], > 100 µM (inactive). The GI50 in assay [19] and in assay [20] was > 100 µM (inactive) in each case.
For `C[C@@H]1[C@@H](C)C(c2ccccc2)O[Si]1(C(C)(C)C)C(C)(C)C` (stereo not given in full), the GI50 in assay [1] is 16.6 µM (inactive); in [2] it was 17.7 µM (inactive); in assay [3], 24.4 µM (inactive); in assay [4] it was 17.6 µM (inactive); in assay [5], 23.1 µM; in assay [6] it was > 10 µM (inactive). Also, the GI50 in assay [7] was 17.5 µM (inactive); in assay [8], 20.9 µM (inactive); in [9] it was 16.7 µM (inactive); in [10], 22.3 µM (inactive); in assay [11], 16.3 µM (inactive); in assay [12], 18.1 µM (inactive). The GI50 is 16.9 µM (inactive) in assay [13]; 25.6 µM (inactive) in [14]; 15.6 µM (inactive) in assay [15]; 16.5 µM (inactive) in assay [16]; 37.8 µM (inactive) in assay [17]; 17.8 µM (inactive) in [18]. Moreover, the figures for the GI50 in [19] and in assay [20] were 15.8 µM (inactive) and 17.2 µM (inactive), respectively.
With `COc1ccc(O)c(/C=N/CCC/N=C/c2cc(OC)ccc2O)c1`, the GI50 in [1] is 8.91 µM (inactive); in assay [2], 24.7 µM (inactive); in assay [3], 23.1 µM (inactive); in assay [4] it was 22 µM (inactive); in assay [5], 18.1 µM; in assay [6], 1.21 µM (inactive). Further, the GI50 is 52.1 µM (inactive) in assay [7]; 24.5 µM (inactive) in assay [8]; 34.4 µM (inactive) in assay [9]; 10.9 µM (inactive) in assay [10]; 13.8 µM (inactive) in assay [11]; 20.9 µM (inactive) in assay [12]. The GI50 in assay [13] was 31.3 µM (inactive); in [14] it was 22.6 µM (inactive); in assay [15], 43.5 µM (inactive); in assay [16], 6.59 µM (inactive); in [17], 21.8 µM (inactive); in assay [18], 15.7 µM (inactive). The GI50 in assay [19] was 31.6 µM (inactive); in assay [20], 33.5 µM (inactive).
As for `N#C/C(=C\c1ccccc1)C(=O)Nc1nnc(-c2ccccc2)o1`, the GI50 in [1] was 27.3 µM (inactive); in assay [2] it was 35.6 µM (inactive); in assay [3], 28.2 µM (inactive); in assay [4], 50.4 µM (inactive); in assay [5], 26.9 µM; in assay [6], 20.7 µM (inactive). Also, the GI50 in assay [7] is 37.6 µM (inactive); in assay [8], > 100 µM (inactive); in assay [9], 27.6 µM (inactive); in assay [10], 26.4 µM (inactive); in assay [11], 41.8 µM (inactive); in assay [12], 50.9 µM (inactive). Besides, the GI50 in assay [13] is 31.5 µM (inactive); in assay [14], 37.8 µM (inactive); in [15], 39 µM (inactive); in [16] it was 14.8 µM (inactive); in assay [17] it was 32.4 µM (inactive); in assay [18] it was 36.1 µM (inactive). In addition, the GI50 is 52.1 µM (inactive) in [19] and 29.4 µM (inactive) in assay [20].
